# Columns and labels:
# 5-Lipoxygenase = 5-Lipoxygenase inhibitory activity, colorimetric method (ferric xylenol orange, linoleic acid); type: biochemical
# Description: 5-Lipoxygenase activity: The corosolic acid analogs were screened for their 5-Lipoxygenase inhibitory potential using colorimetric method. The assay mixture contained 50 mM phosphate buffer pH 6.3, 5-Lipoxygenase, various concentrations of test substances in dimethyl sulphoxide and linoleic acid in a total volume of 0.5 mL, after 5 min incubation of above reaction mixture, 0.5 mL ferric xylenol orange reagent was added and OD was measured after two minutes at 585 nm using spectrophotometer. Controls were run along with test in a similar manner except using vehicle instead of test substance solution. Percent inhibition was calculated by comparing absorbance of test solution with that of control.
# The corosolic acid analogs of this invention are found to show good 5-lipoxygenase activity (Table 2; 5-lipoxygenase activity is expressed in % of inhibition at 100 μM and 250 μM; higher the % inhibitory values, higher is the activity).
# [1] = test system: Brine shrimp (Artemia salina) nauplii; test: in vivo; settings: 24 h at 37° C., 10 nauplii per vial
# Description: (§1) Brine shrimp lethality: Brine shrimp (Artemia salina) nauplii were hatched using brine shrimp eggs in a conical shaped vessel (1 L), filled with sterile artificial sea water (prepared using sea salt 38 g/L and adjusted to pH 8.5 using 1 N NaOH) under constant aeration for 48 h. After hatching, 10 nauplii were drawn through a pepette and placed in each vial containing 4.5 mL brine solution and added various concentrations of drug solutions and volume was made upto 5 mL using brine solution and maintained at 37° C. for 24 h under the light of incandescent lamps and surviving larvae were counted. Each experiment was conducted along with control (vehicle treated), at various concentrations of the test substance in each set that contains 6 tubes and the average results are reported. The percentage lethality was determined by comparing the mean mortal larvae of test and control tubes. LC50 values were obtained from the plot of concentration (μg) vs. percentage lethality. Podophyllotoxin was used as a positive control.
# (§2) The corosolic acid analogs of this invention are found to show significant brine shrimp lethality (Table 3; brine shrimp lethality is expressed in LC50 at μM concentration; lower the LC50 value, higher is the activity).
# Albino wistar rats = test: Hypoglycemic activity: inhibition of sucrose-induced raise in serum glucose levels (SGL); type: in vivo; design: Inhibitory rate (serum glucose level inhibitory rate): unit not given here; settings: oral dose 1 mg/Kg; for SGL (mean ± SE): 20 mL/kg of 20% sucrose orally after 30 minutes, blood drawn one hour after treatment, groups of six rats; for Inhibitory rate (serum glucose level inhibitory rate): mean increase in serum glucose levels of treated vs control groups
# Description: Hypoglycemic activity: Hypoglycemic activity was tested by the inhibition of sucrose-induced raise in serum glucose levels (SGL), by the test substances in Albino wistar rats. The procedure involves fasting the rats for overnight at ad libitum water, numbered weighed and randomly divided into groups of six animals each. Prior to treatment blood samples were drawn from sinus orbital plexus of all animals using heparin coated glass capillaries under mild ether anesthesia. The blood samples were tested for serum glucose levels using enzymatic GOD/POD method. […] SGL=(test OD/Standard OD)×100 and the results were expressed in mg/dL. All the groups were treated orally with corresponding test substances, standard, vehicle (5% gum acacia). After 30 minutes, all animals were given 20 mL/kg of 20% sucrose solution orally using gastric tube. One hour after treatment, blood samples were drawn again under mild ether anesthesia and tested for serum glucose levels in a same procedure as described above for initial serum glucose estimation. The data was subjected to statistical treatment using t-test and inhibitory rate was calculated by comparing mean increase in serum glucose levels of control and treated groups. The corosolic acid analogs of this invention are found to show better hypoglycemic activity (Table 1; hypoglycemic activity is expressed in serum glucose level inhibitory rate values; higher the inhibitory rate value, higher is the activity) than the corosolic acid.
# in vivo = settings: Artemia salina (brine shrimp), pH 8.5; 24 h at 37° C., 10 nauplii per vial
# Description: as §1, §2
Molecule,% inhibition of 5-Lox activity (5-Lipoxygenase; 100 μM) [%],% inhibition of 5-Lox activity (5-Lipoxygenase; 250 μM) [%],LC50 [1] [µM],SGL (mean ± SE) (Albino wistar rats) [mg/dL],Inhibitory rate (serum glucose level inhibitory rate) (Albino wistar rats),5-LOX inhibitory activity (in words) (5-Lipoxygenase),LC50 at 24 h (in vivo) [µM]
"C[C@H]1[C@H](C)CC[C@]2(C(N)=O)CC[C@]3(C)C(=CC[C@@H]4[C@@]5(C)C[C@@H](O)[C@H](O)C(C)(C)[C@@H]5CC[C@]43C)[C@H]12 [Compound 8, Corosolamide]",26.13,51.29,29,110.14 ± 3.18,18.15,–,–
"C[C@H]1[C@H](C)CC[C@]2(C(=O)Nc3ccccc3)CC[C@]3(C)C(=CC[C@@H]4[C@@]5(C)C[C@@H](O)[C@H](O)C(C)(C)[C@@H]5CC[C@]43C)[C@H]12 [Compound 9, N-Phenylcorosolamide]",8.16,21.77,> 100,117.97 ± 0.37,27.58,–,–
"CC1CCC2(C(=O)NCCN)CCC3(C)C(=CCC4C5(C)CC(O)C(O)C(C)(C)C5CCC43C)C2C1C (centres unmarked) [Compound 10, N-(2-Aminoethyl)corosolamide]",21.74,40.87,97.2,113.57 ± 3.80,30.28,–,–
"CC1CCC2(C(=O)N3CCNCC3)CCC3(C)C(=CCC4C5(C)CC(O)C(O)C(C)(C)C5CCC43C)C2C1C (centres unmarked) [Compound 11, N-(Corosolyl)piperazine]",35.42,64.99,9.2,107.88 ± 4.61,19.83,–,–
"CC1CCC2(C(=O)NCCO)CCC3(C)C(=CCC4C5(C)CC(O)C(O)C(C)(C)C5CCC43C)C2C1C (centres unmarked) [Compound 12, N-(2-Hydroxyethyl)corosolamide]",17.74,32.96,> 100,103.49 ± 7.12,36.47,–,–
"COC(=O)[C@]12CC[C@@H](C)[C@H](C)[C@H]1C1=CC[C@@H]3[C@@]4(C)C[C@@H](O)[C@H](O)C(C)(C)[C@@H]4CC[C@@]3(C)[C@]1(C)CC2 [Compound 13, Methyl corosolate]",17.3,40.04,10.2,118.94 ± 8.61,11.6,–,–
"COC(=O)[C@]12CC[C@@H](C)[C@H](C)[C@H]1C1=CC(=O)[C@@H]3[C@@]4(C)C[C@@H](O)[C@H](O)C(C)(C)[C@@H]4CC[C@@]3(C)[C@]1(C)CC2 [Compound 15, Methyl 11-ketocorosolate]",–,25.09,40.9,120.79 ± 4.85,17.4,–,–
"C[C@H]1[C@H](C)CC[C@]2(C(=O)O)CC[C@]3(C)C(=CC(=O)[C@@H]4[C@@]5(C)C[C@H]6OS(=O)(=O)O[C@@H]6C(C)(C)[C@@H]5CC[C@]43C)[C@H]12 [Compound 19, 2α,3β-Dihydroxyurs-12-en-11-one-28-oic acid 2,3-cyclicsulphate]",–,11.81,> 100,129.16 ± 4.66,11.67,–,–
"C[C@H]1[C@H](C)CC[C@]2(C(N)=O)CC[C@]3(C)C(=CC(=O)[C@@H]4[C@@]5(C)C[C@@H](O)[C@H](O)C(C)(C)[C@@H]5CC[C@]43C)[C@H]12 [Compound 20, 11-Ketocorosolamide]",18.57,42.79,> 100,142.81 ± 7.30,12.33,–,–
"C[C@H]1[C@H](C)CC[C@]2(C(N)=O)CC[C@]3(C)C(=CC(O)[C@@H]4[C@@]5(C)C[C@@H](O)[C@H](O)C(C)(C)[C@@H]5CC[C@]43C)[C@H]12 (some centres unmarked) [Compound 21, 11-Hydroxycorosolamide]",25.57,50.83,> 100,121.57 ± 2.62,25.37,–,–
"COc1cc(C(=O)OC(=O)C23CCC(C)C(C)C2C2=CCC4C5(C)CC(O)C(O)C(C)(C)C5CCC4(C)C2(C)CC3)cc(OC)c1OC (centres unmarked) [Compound 25, Corosolyl tri-O-methylgallate]",–,38.83,> 200,131.84 ± 7.77,9.84,–,–
"CC1CCC23CCC4(C)C(=CC(OC2=O)C2C5(C)CC(O)C(O)C(C)(C)C5CCC24C)C3C1C (stereo not drawn) [Compound 26, 2α,3β-Dihydroxyurs-12-en-11,28-olide]",–,10.47,87,136.03 ± 4.43,6.97,–,–
"C[C@H]1[C@H](C)CC[C@]2(C(=O)O)CC[C@]3(C)C(=CC[C@@H]4[C@@]5(C)C[C@@H](O)[C@H](O)C(C)(C)[C@@H]5CC[C@]43C)[C@H]12 [Corosolic acid, 2α-hydroxyursolic acid]",13.48,29.26,–,121.43 ± 6.27,9.78,on par with 3-O-acetyl-11-keto-β-boswellic acid (AKBA),3
"COc1cc([C@@H]2c3cc4c(cc3[C@H](O)[C@H]3COC(=O)[C@H]23)OCO4)cc(OC)c1OC [podophyllotoxin, Podophyllotoxin, reference compound]",–,–,–,–,–,–,7.7
Corosolinol [Compound 23],2.91,19.63,30.7,113.06 ± 2.61,30.59,–,–

# From patent US7893263B2, “Structural analogs of corosolic acid having anti-diabetic and anti-inflammatory properties” (Laila Nutraceuticals, priority 2004, dated 2011)
